In publication PMC9481151, “Discovery of new symmetrical and asymmetrical nitrile-containing 1,4-dihydropyridine derivatives as dual kinases and P-glycoprotein inhibitors: synthesis, in vitro assays, and in silico studies” (Journal of Enzyme Inhibition and Medicinal Chemistry, 2022):

Tests used:
[1] = tested on: CCRF-CEM; test: NCI single dose (10 µM) SRB screen; type: cell-based, human; conditions: leukaemia, 48 h
[2] = tested on: HL-60(TB); test: NCI single dose (10 µM) SRB screen; type: cell-based, human; conditions: leukaemia, 48 h
[3] = tested on: K-562; test: NCI single dose (10 µM) SRB screen; type: cell-based, human; conditions: leukaemia, 48 h
[4] = tested on: MOLT-4; test: NCI single dose (10 µM) SRB screen; type: cell-based, human; conditions: leukaemia, 48 h
[5] = tested on: RPMI-8226; test: NCI single dose (10 µM) SRB screen; type: cell-based, human; conditions: leukaemia, 48 h
[6] = tested on: A549/ATCC; test: NCI single dose (10 µM) SRB screen; type: cell-based, human; conditions: non-small cell lung cancer, 48 h
[7] = tested on: EKVX; test: NCI single dose (10 µM) SRB screen; type: cell-based, human; conditions: non-small cell lung cancer, 48 h
[8] = tested on: NCI-H23; test: NCI single dose (10 µM) SRB screen; type: cell-based, human; conditions: non-small cell lung cancer, 48 h
[9] = tested on: NCI-H322M; test: NCI single dose (10 µM) SRB screen; type: cell-based; conditions: non-small cell lung cancer, 48 h
[10] = tested on: NCI-H460; test: NCI single dose (10 µM) SRB screen; type: cell-based, human; conditions: non-small cell lung cancer, 48 h
[11] = tested on: COLO 205; test: NCI single dose (10 µM) SRB screen; type: cell-based, human; conditions: colon cancer, 48 h
[12] = tested on: HCC-2998; test: NCI single dose (10 µM) SRB screen; type: cell-based, human; conditions: colon cancer, 48 h
[13] = tested on: HCT-116; test: NCI single dose (10 µM) SRB screen; type: cell-based, human; conditions: colon cancer, 48 h
[14] = tested on: HCT-15; test: NCI single dose (10 µM) SRB screen; type: cell-based, human; conditions: colon cancer, 48 h
[15] = tested on: HT29; test: NCI single dose (10 µM) SRB screen; type: cell-based, human; conditions: colon cancer, 48 h
[16] = tested on: SF-268; test: NCI single dose (10 µM) SRB screen; type: cell-based, human; conditions: CNS cancer, 48 h
[17] = tested on: SF-295; test: NCI single dose (10 µM) SRB screen; type: cell-based, human; conditions: CNS cancer, 48 h
[18] = tested on: SF-539; test: NCI single dose (10 µM) SRB screen; type: cell-based, human; conditions: CNS cancer, 48 h
[19] = tested on: SNB-19; test: NCI single dose (10 µM) SRB screen; type: cell-based, human; conditions: CNS cancer, 48 h
[20] = tested on: SNB-75; test: NCI single dose (10 µM) SRB screen; type: cell-based, human; conditions: CNS cancer, 48 h
[21] = tested on: U251; test: NCI single dose (10 µM) SRB screen; type: cell-based, human; conditions: CNS cancer, 48 h
[22] = tested on: LOX IMVI; test: NCI single dose (10 µM) SRB screen; type: cell-based, human; conditions: melanoma, 48 h
[23] = tested on: MALME-3M; test: NCI single dose (10 µM) SRB screen; type: cell-based, human; conditions: melanoma, 48 h
[24] = tested on: M14; test: NCI single dose (10 µM) SRB screen; type: cell-based, human; conditions: melanoma, 48 h
[25] = tested on: MDA-MB-435; test: NCI single dose (10 µM) SRB screen; type: cell-based, human; conditions: melanoma, 48 h
[26] = tested on: SK-MEL-2; test: NCI single dose (10 µM) SRB screen; type: cell-based, human; conditions: melanoma, 48 h
[27] = tested on: UACC-257; test: NCI single dose (10 µM) SRB screen; type: cell-based, human; conditions: melanoma, 48 h
[28] = tested on: IGROV1; test: NCI single dose (10 µM) SRB screen; type: cell-based, human; conditions: ovarian cancer, 48 h
[29] = tested on: OVCAR-3; test: NCI single dose (10 µM) SRB screen; type: cell-based, human; conditions: ovarian cancer, 48 h
[30] = tested on: OVCAR-4; test: NCI single dose (10 µM) SRB screen; type: cell-based, human; conditions: ovarian cancer, 48 h
[31] = tested on: OVCAR-5; test: NCI single dose (10 µM) SRB screen; type: cell-based, human; conditions: ovarian cancer, 48 h
[32] = tested on: OVCAR-8; test: NCI single dose (10 µM) SRB screen; type: cell-based, human; conditions: ovarian cancer, 48 h
[33] = tested on: NCI/ADR-RES; test: NCI single dose (10 µM) SRB screen; type: cell-based, human; conditions: ovarian cancer, 48 h
[34] = tested on: SK-OV-3; test: NCI single dose (10 µM) SRB screen; type: cell-based, human; conditions: ovarian cancer, 48 h
[35] = tested on: 786-0; test: NCI single dose (10 µM) SRB screen; type: cell-based, human; conditions: renal cancer, 48 h
[36] = tested on: A498; test: NCI single dose (10 µM) SRB screen; type: cell-based, human; conditions: renal cancer, 48 h
[37] = tested on: ACHN; test: NCI single dose (10 µM) SRB screen; type: cell-based, human; conditions: renal cancer, 48 h
[38] = tested on: CAKI-1; test: NCI single dose (10 µM) SRB screen; type: cell-based, human; conditions: renal cancer, 48 h
[39] = tested on: RXF 393; test: NCI single dose (10 µM) SRB screen; type: cell-based, human; conditions: renal cancer, 48 h
[40] = tested on: SN12C; test: NCI single dose (10 µM) SRB screen; type: cell-based, human; conditions: renal cancer, 48 h
[41] = tested on: TK-10; test: NCI single dose (10 µM) SRB screen; type: cell-based, human; conditions: renal cancer, 48 h
[42] = tested on: UO-31; test: NCI single dose (10 µM) SRB screen; type: cell-based, human; conditions: renal cancer, 48 h
[43] = tested on: PC-3; test: NCI single dose (10 µM) SRB screen; type: cell-based, human; conditions: prostate cancer, 48 h
[44] = tested on: MDA-MB-231; test: NCI single dose (10 µM) SRB screen; type: cell-based, human; conditions: breast cancer, 48 h
[45] = tested on: HS578T; test: NCI single dose (10 µM) SRB screen; type: cell-based, human; conditions: breast cancer, 48 h
[46] = tested on: BT-549; test: NCI single dose (10 µM) SRB screen; type: cell-based, human; conditions: breast cancer, 48 h
[47] = tested on: T-47D; test: NCI single dose (10 µM) SRB screen; type: cell-based, human; conditions: breast cancer, 48 h
[48] = tested on: MDA-MB-468; test: NCI single dose (10 µM) SRB screen; type: cell-based, human; conditions: breast cancer, 48 h
[49] = tested on: NCI 60 cancer cell lines; test: NCI single dose (10 µM) SRB screen, mean over panel; type: cell-based, human; conditions: mean over 60 cell lines, 48 h
[50] = tested on: Staphylococcus aureus; test: Agar well diffusion method
[51] = tested on: Candida albicans; test: Agar well diffusion method
[52] = tested on: Aspergillus flavus; test: Agar well diffusion method

CCOC(=O)C1=C(C)NC(C)=C(C(=O)OCCOC)C1c1cccc(C#N)c1 (racemic) [Compound 2k, (±)-3-Ethyl 5-(2-methoxyethyl) 4-(3-cyanophenyl)-2,6-dimethyl-1,4-dihydropyridine-3,5-dicarboxylate]
GI% CCRF-CEM [1]: – (Only GI% ≥ 10 are shown)
GI% HL-60(TB) [2]: 12%
GI% K-562 [3]: 10%
GI% MOLT-4 [4]: – (Only GI% ≥ 10 are shown)
GI% RPMI-8226 [5]: – (Only GI% ≥ 10 are shown)
GI% A549/ATCC [6]: – (Only GI% ≥ 10 are shown)
GI% EKVX [7]: – (Only GI% ≥ 10 are shown)
GI% NCI-H23 [8]: – (Only GI% ≥ 10 are shown)
GI% NCI-H322M [9]: – (Only GI% ≥ 10 are shown)
GI% NCI-H460 [10]: – (Only GI% ≥ 10 are shown)
GI% COLO 205 [11]: – (Only GI% ≥ 10 are shown)
GI% HCC-2998 [12]: – (Only GI% ≥ 10 are shown)
GI% HCT-116 [13]: – (Only GI% ≥ 10 are shown)
GI% HCT-15 [14]: – (Only GI% ≥ 10 are shown)
GI% HT29 [15]: – (Only GI% ≥ 10 are shown)
GI% SF-268 [16]: – (Only GI% ≥ 10 are shown)
GI% SF-295 [17]: – (Only GI% ≥ 10 are shown)
GI% SF-539 [18]: – (Only GI% ≥ 10 are shown)
GI% SNB-19 [19]: – (Only GI% ≥ 10 are shown)
GI% SNB-75 [20]: – (Only GI% ≥ 10 are shown)
GI% U251 [21]: – (Only GI% ≥ 10 are shown)
GI% LOX IMVI [22]: – (Only GI% ≥ 10 are shown)
GI% MALME-3M [23]: – (Only GI% ≥ 10 are shown)
GI% M14 [24]: – (Only GI% ≥ 10 are shown)
GI% MDA-MB-435 [25]: – (Only GI% ≥ 10 are shown)
GI% SK-MEL-2 [26]: – (Only GI% ≥ 10 are shown)
GI% UACC-257 [27]: – (Only GI% ≥ 10 are shown)
GI% IGROV1 [28]: – (Only GI% ≥ 10 are shown)
GI% OVCAR-3 [29]: – (Only GI% ≥ 10 are shown)
GI% OVCAR-4 [30]: – (Only GI% ≥ 10 are shown)
GI% OVCAR-5 [31]: – (Only GI% ≥ 10 are shown)
GI% OVCAR-8 [32]: – (Only GI% ≥ 10 are shown)
GI% NCI/ADR-RES [33]: – (Only GI% ≥ 10 are shown)
GI% SK-OV-3 [34]: – (Only GI% ≥ 10 are shown)
GI% 786-0 [35]: – (Only GI% ≥ 10 are shown)
GI% A498 [36]: 21%
GI% ACHN [37]: – (Only GI% ≥ 10 are shown)
GI% CAKI-1 [38]: – (Only GI% ≥ 10 are shown)
GI% RXF 393 [39]: – (Only GI% ≥ 10 are shown)
GI% SN12C [40]: – (Only GI% ≥ 10 are shown)
GI% TK-10 [41]: – (Only GI% ≥ 10 are shown)
GI% UO-31 [42]: – (Only GI% ≥ 10 are shown)
GI% PC-3 [43]: – (Only GI% ≥ 10 are shown)
GI% MDA-MB-231 [44]: – (Only GI% ≥ 10 are shown)
GI% HS578T [45]: – (Only GI% ≥ 10 are shown)
GI% BT-549 [46]: – (Only GI% ≥ 10 are shown)
GI% T-47D [47]: – (Only GI% ≥ 10 are shown)
GI% MDA-MB-468 [48]: – (Only GI% ≥ 10 are shown)
Mean GI% [49]: −1%
zone of inhibition at 1000 µg/mL ([50]; Staphylococcus aureus, 24 h, read-out: Diameter of inhibition zone, S. aureus): 17 mm
% activity index, S. aureus ([50]; relative to ciprofloxacin): 70.8%
zone of inhibition at 1000 µg/mL ([51]; Candida albicans, 24 h, read-out: Diameter of inhibition zone, C. albicans): 16 mm
% activity index, C. albicans ([51]; relative to clotrimazole): 59.2%
zone of inhibition at 1000 µg/mL ([52]; Aspergillus flavus, 24 h, read-out: Diameter of inhibition zone, A. flavus): 18 mm
% activity index, A. flavus ([52]; relative to clotrimazole): 72%
